Assay results as given in patent publication US12060360B2, “Lysyl oxidase inhibitors” (The Institute of Cancer Research: Royal Cancer Hospital, priority 2017, dated 2024).
pIC50: −log10 of the molar value.

Columns and labels:
LOX = target: T1, LOX (Mus musculus, UniProt P28301); assay: LOX activity in cysts assay (LOX-roGFP2 biosensor, MDCK cysts); assay type: cell-based; details: MDCK cysts, roGFP2 ratio at basal surface; read-out: LOX biosensor IC50 (cyst)
T1 construct: Full length LOX cDNA was then PCR cloned into pEGFP-N1 (Clonetech), or biosensor vector proGFP2-N1; expressed in transfected cells; host or cells: MDCK cells grown as cysts on Matrigel, G418-selected
T1 sequence (P28301 163-411): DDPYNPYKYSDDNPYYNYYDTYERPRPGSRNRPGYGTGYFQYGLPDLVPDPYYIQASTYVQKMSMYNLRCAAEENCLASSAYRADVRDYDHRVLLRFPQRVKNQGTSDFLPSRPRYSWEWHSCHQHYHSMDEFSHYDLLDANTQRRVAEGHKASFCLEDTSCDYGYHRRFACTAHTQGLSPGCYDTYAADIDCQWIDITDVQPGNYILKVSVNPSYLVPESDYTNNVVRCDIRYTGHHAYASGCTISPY
Summary of the method: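 Live MDCK cysts grown 10 days on Matrigel and expressing mouse LOX fused to the roGFP2 redox biosensor, with inhibitors added 30 min before confocal imaging. Oxidised/reduced ratio (405/488 nm excitation, 500–530 nm emission) at the basal cyst surface taken as LOX activity. DMSO defines 0% and 1 mM BAPN 100% inhibition.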

[1] = tested on: MMTV-PyMT breast transgenic model primary tumour; assay: MMTV-PyMT transgenic mouse breast cancer model, primary tumour T/C; assay type: in vivo; details: 200 mg/kg po qd; ratio of average tumour volume treated/vehicle control; p<0.05
Experimental: All procedures involving animals were approved by the Animal Welfare and Ethical Review Body of the Institute of Cancer Research and Cancer Research UK Manchester Institute in accordance with National Home Office regulations under the Animals (Scientific Procedures) Act 1986 and according to the guidelines of the Committee of the National Cancer Research Institute Tumour size was determined by caliper measurements of tumour length, width and depth and volume was calculated as volume=0.5236×length×width×depth (mm).
MMTV-PyMT (Guy et al, 1992) (FVB) female mice were randomized by non-statistical methods to LOX inhibitor treatment groups from day 70 post-birth, when animals had no detectable tumour. Mice were treated daily by oral gavage with LOX inhibitor in vehicle, or daily vehicle (5% DMSO/2.5% Tween20 in water) by oral gavage. Tumour size was determined unblinded by caliper measurements of tumour length, width and depth and volume was calculated as 0.5236×length×width×depth (mm). In all experiments, mice were humanely killed and mammary tumours and lungs were collected when the primary tumours reached ethical limits or signs of ill health.
For therapeutic efficacy assessment, the ratio of average tumour volume between compound treated and vehicle control treated (T/C) is calculated. Reduction in tumour volume in the compound treated group compared to vehicle-treated control group results in T/C<1. The efficacy of LOX inhibitors described in this invention, as measured by T/C in a pancreatic cancer model, a colorectal cancer model and a breast cancer model is shown in Table 2 and is significant (p<0.05) for all the data presented.

`CCOc1ccc(N2C[C@H]3CN(CCCC#N)C[C@@H]2C(C)(C)C3)cc1` [Example 42, 4-((1R,5S)-6-(4-ethoxyphenyl)-9,9-dimethyl-3,6-diazabicyclo[3.2.2]nonan-3-yl)butanenitrile] was tested, and the pIC50 (LOX) was > 6.20 and the “T/C MMT-PyMT breast transgenic model - primary tumour” value [1] was 0.50.
